# Assay results reported in US12391683B2, “Therapeutic compounds and methods” (Actio Biosciences, Inc., priority 2022, dated 2025).
# Biological target: T1, TRPC5 channels (Homo sapiens, UniProt Q9UL62)
# T1 construct: expressed in transfected cells; host or cells: HEK293
# T1 sequence (Q9UL62 1-973): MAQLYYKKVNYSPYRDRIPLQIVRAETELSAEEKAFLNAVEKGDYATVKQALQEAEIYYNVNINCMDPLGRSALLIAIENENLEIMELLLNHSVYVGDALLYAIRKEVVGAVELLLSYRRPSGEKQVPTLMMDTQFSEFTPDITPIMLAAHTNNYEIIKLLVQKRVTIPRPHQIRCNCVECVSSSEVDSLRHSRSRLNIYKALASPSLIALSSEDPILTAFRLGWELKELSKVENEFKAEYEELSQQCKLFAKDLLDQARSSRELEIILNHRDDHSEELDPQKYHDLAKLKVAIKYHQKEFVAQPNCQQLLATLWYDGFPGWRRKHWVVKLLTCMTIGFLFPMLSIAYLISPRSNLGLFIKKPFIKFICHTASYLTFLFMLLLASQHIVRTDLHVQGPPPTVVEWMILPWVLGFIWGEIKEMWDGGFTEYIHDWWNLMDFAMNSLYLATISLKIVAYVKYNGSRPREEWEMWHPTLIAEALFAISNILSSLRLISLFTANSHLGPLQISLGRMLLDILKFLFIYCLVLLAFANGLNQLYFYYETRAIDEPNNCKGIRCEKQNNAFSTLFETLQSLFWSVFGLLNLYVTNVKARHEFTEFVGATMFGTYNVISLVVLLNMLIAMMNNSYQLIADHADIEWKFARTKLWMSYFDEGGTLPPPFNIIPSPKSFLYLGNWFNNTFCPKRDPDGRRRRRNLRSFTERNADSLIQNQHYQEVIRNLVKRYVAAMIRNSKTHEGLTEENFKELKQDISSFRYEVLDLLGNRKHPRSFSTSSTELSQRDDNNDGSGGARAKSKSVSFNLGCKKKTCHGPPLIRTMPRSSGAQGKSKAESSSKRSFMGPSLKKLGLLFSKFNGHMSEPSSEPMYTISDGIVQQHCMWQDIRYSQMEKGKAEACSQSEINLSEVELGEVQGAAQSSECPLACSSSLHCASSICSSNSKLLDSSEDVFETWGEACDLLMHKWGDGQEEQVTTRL
# Experiment: TRP Family FLIPR Assay, TRPC5
# Assay type: cell-based
# Details: HEK293 cells
# Experimental: The compound of Example 5 was tested for selectivity against a panel of Human TRP family ion channels in a TRP Family FLIPR Assay as described below. • 1. TRPC3 channels (human TRPC3 variant 1 gene, expressed in HEK293 cells). • 2. TRPC4 channels (human TRPC4 gene, expressed in HEK293 cells). • 3. TRPC5 channels (human TRPC5 gene, expressed in HEK293 cells). • 4. TRPC6 channels (human TRPC6 gene, expressed in HEK293 cells). • 5. TRPM2 channels (human TRPM2 gene, transiently expressed in HEK293 cells). • 6. TRPM3 channels (human TRPM3 gene, transiently expressed in HEK293 cells). • 7. TRPM4 channels (human TRPM4 gene, expressed in CHO cells). • 8. […]
# Data acquisition was performed via the FLIPR Control software supplied with the FLIPR System (MDS-AT) and data was analyzed using Microsoft Excel (Microsoft Corp., Redmond, WA) or GraphPad Prism. […]
# [formula] where Base is the response at low concentrations of test article, Max is the maximum response at high concentrations, xhalf the EC50, or IC50, the concentration of test article producing either half-maximal activation or inhibition, and rate is the Hill coefficient. […] No assumptions about the fit parameters was made; the fit parameters were determined by the algorithm.
# The effect of each test article was evaluated at eight (8) concentrations: 0.003, 0.01, 0.03, 0.1, 0.3, 1, 3 and 10 μM, n≤4 wells/concentration). […]
compound,measurement,setting,value
"CC(C)(O)c1cnc(N2C[C@@]3(CC[C@@H](F)[C@](C)(Cn4cnc5ccc(C#N)cc54)C3)OC2=O)cn1 (single isomer, unassigned) [Example 5]",EC50,"agonist mode, vs EMAX of (−)-Englerin A 30 μM, read-out: EC50 hTRPC5",> 10 µM
same,IC50,"antagonist mode, activated with 0.5 μM (−)-Englerin A, 0.003-10 μM, read-out: IC50 hTRPC5",> 10 µM
